Measured values reported in patent US20250042900A1 (priority 2022, published 2025).
Counter-ions that a name gives are not always drawn. Like-named read-outs stand apart in the source and are kept apart here.

Experiments:
[1] = target: Nuclear Hormone Glucocorticoid Receptor (GR) (Homo sapiens, UniProt P04150); assay: NHR Protein Interaction assay, agonist format; format: cell-based; settings: read-out: EC50 (μM) Agonist/Opener
[2] = target: hERG (Homo sapiens, UniProt Q12809); assay: Ion channel assay, blocker format; format: cell-based; settings: read-out: IC50 (μM) Antag./Blocker/Inhibitor
[3] = target: Nicotinic acetylcholine Receptor α4 β2 (nAChR(a4/b2)) (Homo sapiens, UniProt P17787+P43681); assay: Ion channel assay, blocker format; format: cell-based; settings: read-out: IC50 (μM) Antag./Blocker/Inhibitor
[4] = target: CAV1.2 (Voltage-gated L-type calcium channel) (Homo sapiens, UniProt Q13936); assay: Ion channel assay, blocker format; format: cell-based; settings: read-out: IC50 (μM) Antag./Blocker/Inhibitor
[5] = target: Endothelin Receptor Type A (EDNRA) (Homo sapiens, UniProt P25101); assay: Calcium flux secondary messenger assay, agonist format; format: cell-based; settings: read-out: EC50 (μM) Agonist/Opener
[6] = target: N-methyl-D-aspartate (NMDA) Glutamate Receptor 1A/2B (NMDAR (1A/2B)) (Homo sapiens, UniProt Q05586+Q13224); assay: Ion channel assay, blocker format; format: cell-based; settings: read-out: IC50 (μM) Antag./Blocker/Inhibitor
[7] = target: Adrenergic Receptor β1 (ADRB1) (Homo sapiens, UniProt P08588); assay: cAMP secondary messenger assay, antagonist format; format: cell-based; settings: read-out: IC50 (μM) Antag./Blocker/Inhibitor
[8] = target: HTR2A (5-hydroxytryptamine (serotonin) receptor 2A) (Homo sapiens, UniProt P28223); assay: In vitro activity at 5-HT2AR, agonist mode (calcium flux secondary messenger assay); format: cell-based; settings: for EC50: agonist
[9] = target: Adrenergic Receptor β2 (ADRB2) (Homo sapiens, UniProt P07550); assay: cAMP secondary messenger assay, antagonist format; format: cell-based; settings: read-out: IC50 (μM) Antag./Blocker/Inhibitor
[10] = target: Opioid Receptor Kappa 1 (OPRK1) (Homo sapiens, UniProt P41145); assay: cAMP secondary messenger assay, antagonist format; format: cell-based; settings: read-out: IC50 (μM) Antag./Blocker/Inhibitor
[11] = target: T1, Rho Associated Coiled-Coil Containing Protein Kinase 1 (ROCK1) (Homo sapiens, UniProt Q13464); assay: Kinase binding assay (KINOMEscan); settings: inhibitor, read-out: IC50 (μM) Antag./Blocker/Inhibitor
T1 construct: T7 phage fusion (most assays) or DNA tag for qPCR (the remaining kinases); made in house; host or cells: E. coli (BL21-derived, T7 phage display) or HEK-293

[12] = target: Muscarinic acetylcholine Receptor M2 (CHRM2) (Homo sapiens, UniProt P08172); assay: cAMP secondary messenger assay, antagonist format; format: cell-based; settings: read-out: IC50 (μM) Antag./Blocker/Inhibitor
[13] = target: Opioid Receptor Delta 1 (OPRD1) (Homo sapiens, UniProt P41143); assay: cAMP secondary messenger assay, antagonist format; format: cell-based; settings: read-out: IC50 (μM) Antag./Blocker/Inhibitor

HTR2A (5-hydroxytryptamine (serotonin) receptor 2A), sequence (P28223 whole entry): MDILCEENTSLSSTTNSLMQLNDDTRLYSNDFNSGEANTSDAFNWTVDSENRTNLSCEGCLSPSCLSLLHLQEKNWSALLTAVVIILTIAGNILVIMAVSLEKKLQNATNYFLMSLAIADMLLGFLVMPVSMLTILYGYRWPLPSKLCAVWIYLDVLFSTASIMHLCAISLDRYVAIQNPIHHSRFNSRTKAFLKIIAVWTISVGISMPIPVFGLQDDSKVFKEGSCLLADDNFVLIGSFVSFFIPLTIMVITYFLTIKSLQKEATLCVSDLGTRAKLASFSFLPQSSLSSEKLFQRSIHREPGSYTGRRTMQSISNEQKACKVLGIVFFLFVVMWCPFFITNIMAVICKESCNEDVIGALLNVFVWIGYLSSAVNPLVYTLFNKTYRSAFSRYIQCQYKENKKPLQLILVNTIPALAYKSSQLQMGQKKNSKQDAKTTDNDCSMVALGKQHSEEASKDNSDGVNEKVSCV
Nuclear Hormone Glucocorticoid Receptor (GR), sequence (P04150 whole entry): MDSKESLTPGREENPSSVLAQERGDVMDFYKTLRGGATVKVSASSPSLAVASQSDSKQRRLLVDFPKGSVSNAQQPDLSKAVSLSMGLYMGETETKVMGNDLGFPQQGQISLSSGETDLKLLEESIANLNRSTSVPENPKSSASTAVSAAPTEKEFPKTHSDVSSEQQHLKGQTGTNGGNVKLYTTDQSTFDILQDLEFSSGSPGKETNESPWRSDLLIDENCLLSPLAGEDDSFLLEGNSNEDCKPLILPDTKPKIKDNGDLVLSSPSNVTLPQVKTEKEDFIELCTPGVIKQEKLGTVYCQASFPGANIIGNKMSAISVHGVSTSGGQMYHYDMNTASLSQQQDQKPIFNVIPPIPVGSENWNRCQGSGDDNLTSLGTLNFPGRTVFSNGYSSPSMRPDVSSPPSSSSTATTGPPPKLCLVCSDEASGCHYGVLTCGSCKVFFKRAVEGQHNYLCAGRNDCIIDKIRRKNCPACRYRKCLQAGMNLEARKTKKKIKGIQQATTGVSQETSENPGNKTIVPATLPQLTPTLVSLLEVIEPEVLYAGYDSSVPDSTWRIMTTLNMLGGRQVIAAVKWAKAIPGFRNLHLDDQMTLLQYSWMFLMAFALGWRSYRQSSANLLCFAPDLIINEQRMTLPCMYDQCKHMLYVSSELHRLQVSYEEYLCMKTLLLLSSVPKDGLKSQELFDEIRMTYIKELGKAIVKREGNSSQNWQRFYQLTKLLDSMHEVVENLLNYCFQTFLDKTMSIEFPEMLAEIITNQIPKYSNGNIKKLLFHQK
Nicotinic acetylcholine Receptor α4 β2 (nAChR(a4/b2)), sequence (P43681 29-627 limits assumed): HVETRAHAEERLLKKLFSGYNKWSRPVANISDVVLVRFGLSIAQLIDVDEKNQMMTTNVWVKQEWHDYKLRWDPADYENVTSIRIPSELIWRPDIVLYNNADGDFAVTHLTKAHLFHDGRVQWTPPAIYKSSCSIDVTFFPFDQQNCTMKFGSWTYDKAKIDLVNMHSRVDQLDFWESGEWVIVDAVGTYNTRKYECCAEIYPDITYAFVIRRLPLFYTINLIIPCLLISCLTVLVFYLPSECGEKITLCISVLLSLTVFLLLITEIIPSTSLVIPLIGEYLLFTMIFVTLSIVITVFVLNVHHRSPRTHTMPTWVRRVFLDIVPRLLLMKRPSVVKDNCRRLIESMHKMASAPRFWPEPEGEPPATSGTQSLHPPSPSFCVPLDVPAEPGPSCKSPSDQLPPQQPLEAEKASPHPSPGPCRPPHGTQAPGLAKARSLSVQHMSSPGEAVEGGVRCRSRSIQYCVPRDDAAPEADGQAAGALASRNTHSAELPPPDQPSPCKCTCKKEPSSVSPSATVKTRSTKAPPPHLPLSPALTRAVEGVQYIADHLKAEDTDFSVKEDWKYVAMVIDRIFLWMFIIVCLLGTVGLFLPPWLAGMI
Nicotinic acetylcholine Receptor α4 β2 (nAChR(a4/b2)), sequence (P17787 26-502): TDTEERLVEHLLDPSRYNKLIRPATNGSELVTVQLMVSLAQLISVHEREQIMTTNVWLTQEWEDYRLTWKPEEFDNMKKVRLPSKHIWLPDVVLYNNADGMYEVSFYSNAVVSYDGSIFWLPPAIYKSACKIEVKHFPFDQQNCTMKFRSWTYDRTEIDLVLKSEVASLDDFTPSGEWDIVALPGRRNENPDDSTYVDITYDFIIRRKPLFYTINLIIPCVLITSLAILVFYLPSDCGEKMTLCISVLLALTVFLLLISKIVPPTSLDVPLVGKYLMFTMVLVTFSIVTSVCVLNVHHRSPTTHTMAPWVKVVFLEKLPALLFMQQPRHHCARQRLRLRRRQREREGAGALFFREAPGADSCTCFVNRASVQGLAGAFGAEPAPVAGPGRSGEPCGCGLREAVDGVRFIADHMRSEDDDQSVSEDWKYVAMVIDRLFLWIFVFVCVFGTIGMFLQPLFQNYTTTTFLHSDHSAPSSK
Adrenergic Receptor β2 (ADRB2), sequence (P07550 whole entry): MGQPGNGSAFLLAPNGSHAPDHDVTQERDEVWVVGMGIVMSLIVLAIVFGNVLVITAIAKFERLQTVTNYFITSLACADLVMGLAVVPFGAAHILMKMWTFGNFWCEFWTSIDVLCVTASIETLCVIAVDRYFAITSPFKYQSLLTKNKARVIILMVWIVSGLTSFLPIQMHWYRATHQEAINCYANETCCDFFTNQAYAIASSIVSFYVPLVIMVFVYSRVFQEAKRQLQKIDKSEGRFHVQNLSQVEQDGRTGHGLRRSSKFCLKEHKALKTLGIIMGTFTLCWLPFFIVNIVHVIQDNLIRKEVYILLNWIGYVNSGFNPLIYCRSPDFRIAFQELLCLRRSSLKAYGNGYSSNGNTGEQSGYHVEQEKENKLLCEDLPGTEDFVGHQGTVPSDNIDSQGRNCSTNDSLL
hERG, sequence (Q12809 whole entry): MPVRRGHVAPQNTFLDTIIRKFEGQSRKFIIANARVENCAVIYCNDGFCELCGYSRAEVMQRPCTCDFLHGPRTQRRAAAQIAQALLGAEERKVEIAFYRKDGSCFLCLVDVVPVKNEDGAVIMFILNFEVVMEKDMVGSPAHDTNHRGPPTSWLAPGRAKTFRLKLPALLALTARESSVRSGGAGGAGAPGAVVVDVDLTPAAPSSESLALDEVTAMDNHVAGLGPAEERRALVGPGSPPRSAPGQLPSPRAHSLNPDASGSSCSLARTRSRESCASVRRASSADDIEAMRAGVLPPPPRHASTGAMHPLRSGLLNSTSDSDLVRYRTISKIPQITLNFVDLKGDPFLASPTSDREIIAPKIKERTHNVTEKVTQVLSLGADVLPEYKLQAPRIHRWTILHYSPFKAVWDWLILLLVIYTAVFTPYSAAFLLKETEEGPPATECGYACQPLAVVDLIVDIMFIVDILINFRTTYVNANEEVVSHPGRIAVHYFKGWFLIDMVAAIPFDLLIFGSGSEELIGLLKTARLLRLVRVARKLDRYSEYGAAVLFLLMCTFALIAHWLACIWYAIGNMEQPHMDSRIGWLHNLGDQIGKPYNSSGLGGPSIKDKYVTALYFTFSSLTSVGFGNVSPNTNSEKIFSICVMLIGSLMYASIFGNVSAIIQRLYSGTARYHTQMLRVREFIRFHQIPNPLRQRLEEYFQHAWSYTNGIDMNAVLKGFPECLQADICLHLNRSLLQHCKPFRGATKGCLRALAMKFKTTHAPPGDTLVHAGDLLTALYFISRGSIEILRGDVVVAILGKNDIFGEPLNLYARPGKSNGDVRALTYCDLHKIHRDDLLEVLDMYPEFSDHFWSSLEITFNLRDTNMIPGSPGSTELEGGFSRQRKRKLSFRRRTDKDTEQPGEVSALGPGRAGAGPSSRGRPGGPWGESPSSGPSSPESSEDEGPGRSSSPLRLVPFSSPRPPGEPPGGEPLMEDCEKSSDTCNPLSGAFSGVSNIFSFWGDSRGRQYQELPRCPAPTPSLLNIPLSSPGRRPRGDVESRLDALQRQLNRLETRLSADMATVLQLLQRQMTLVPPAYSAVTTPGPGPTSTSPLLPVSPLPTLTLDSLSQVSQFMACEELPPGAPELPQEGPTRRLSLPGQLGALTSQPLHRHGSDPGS
Adrenergic Receptor β1 (ADRB1), sequence (P08588 whole entry): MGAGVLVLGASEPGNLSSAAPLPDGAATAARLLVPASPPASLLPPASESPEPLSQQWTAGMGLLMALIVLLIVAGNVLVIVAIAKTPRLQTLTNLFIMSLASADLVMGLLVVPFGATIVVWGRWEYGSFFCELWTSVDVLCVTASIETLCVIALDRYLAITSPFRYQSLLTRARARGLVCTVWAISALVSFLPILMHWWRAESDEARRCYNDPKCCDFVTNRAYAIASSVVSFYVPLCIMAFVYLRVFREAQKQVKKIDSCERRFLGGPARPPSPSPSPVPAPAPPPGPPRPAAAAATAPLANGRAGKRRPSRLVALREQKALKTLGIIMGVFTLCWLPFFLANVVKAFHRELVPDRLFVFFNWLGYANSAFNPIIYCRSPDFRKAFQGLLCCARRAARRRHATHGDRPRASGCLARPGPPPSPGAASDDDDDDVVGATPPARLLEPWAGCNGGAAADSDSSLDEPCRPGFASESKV
Opioid Receptor Kappa 1 (OPRK1), sequence (P41145 whole entry): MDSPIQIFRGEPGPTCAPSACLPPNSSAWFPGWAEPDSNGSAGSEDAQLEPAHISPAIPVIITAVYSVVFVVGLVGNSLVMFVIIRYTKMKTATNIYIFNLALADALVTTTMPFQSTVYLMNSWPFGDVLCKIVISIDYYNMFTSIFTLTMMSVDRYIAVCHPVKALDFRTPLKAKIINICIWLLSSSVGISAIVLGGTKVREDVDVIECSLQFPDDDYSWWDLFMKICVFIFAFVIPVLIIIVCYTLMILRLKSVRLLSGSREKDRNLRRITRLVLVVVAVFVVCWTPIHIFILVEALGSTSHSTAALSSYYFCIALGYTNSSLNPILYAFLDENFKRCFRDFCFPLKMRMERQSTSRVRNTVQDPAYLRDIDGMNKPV

For `CN(C)CCc1ccn2ccccc12` [28-12 oxalate, 2-(indolizin-1-yl)-N, N-dimethylethan-1-amine oxalate], the EC50 [1] was > 30 µM, the IC50 [2] was > 30 µM and the IC50 [3] was > 30 µM. For the same compound, the IC50 [4] was > 30 µM, the EC50 [5] was > 30 µM and the IC50 [6] was > 30 µM. For the same compound, the IC50 [7] was > 30 µM, the “agonist effects at 5-HT2AR (in words)” value [8] was “partial agonist effects” and the EC50 ([8]; 5-HT2A, Calcium Flux, read-out: EC50 (μM) Agonist/Opener) was 0.052 µM. For the same compound, the EC50 ([8]; ten concentrations up to 30 μM, estimated, read-out: EC50 at 5-HT2AR) was ~0.0522 µM, the Emax ([8]; of the response produced by 5-HT, read-out: maximum effect at 5-HT2AR) was ~30% and the IC50 [9] was 10.2 µM. The IC50 [10] was > 30 µM, the IC50 [11] was > 30 µM and the IC50 [12] was > 30 µM. The IC50 [13] was > 30 µM.
